From patent US8338619B2, “Crystalline form of the zoledronic acid, a process to obtain it and the pharmaceutical composition comprising it” (Gador S.A., priority 2005, dated 2012) come the findings set out here.

A short description of this series: TGA Kinetics Analysis of dehydration (constant heating rate thermogravimetry, ASTM E1641). In kind it is physicochemical.

Experimental: In this Example, thermogravimetric analysis (TGA) is used as an analytical methodology to quantify the thermal stability parameters of solid chemicals. The data generated from these measurements is analyzed to obtain Arrhenius kinetic parameters such us activation energy (Ea) and preexponential factor. The activation energies of two different hydrates—zoledronic acid monohydrate and trihydrate—is obtained to analyze the dehydration reaction of these two forms to anhydrous form so that the their relative solid-state thermal stability can be ranked based on their activation energy values.
Thermogravimetric analysis (TGA) is a thermal analysis technique which measures the amount and rate of change on the weight of a material as a function of temperature or time in a controlled atmosphere. TGA measurements are used primarily to determinate the composition of materials and to predict their thermal stability up to elevate temperatures. However, with proper experimental procedures, additional information about the kinetics of decomposition and in-use lifetime predictions can be obtained.
TGA Kinetics Analysis method covers determination of the kinetic parameters, Arrhenius activation energy preexponential factor by thermogravimetry, based on the assumption that the decomposition to obeys first-order kinetics.
This program utilizes data gathered by running a sample at various heating rates. […]

As for `O=P(O)(O)C(O)(Cn1ccnc1)P(=O)(O)O` [Zoledronic acid monohydrate, Zoledronic Acid Monohydrate], the “Activation energy (dehydration to anhydrous form)” value (at 50.0 percent of conversion level, TGA at 5, 10 and 20° C./min from 25 to 200° C., dry nitrogen purge, Monohydrate) was 36.33 kcal/mol. `O=P(O)(O)C(O)(Cn1ccnc1)P(=O)(O)O` [Zoledronic acid trihydrate, Zoledronic Acid Trihydrate]: for the setting “trihydrate vs monohydrate”, the “solid-state kinetic thermal stability (relative ranking from activation energy)” value is “greater than monohydrate form”.
